Legend:
[1] = tested on: DNA containing 5′-GAATTC-3′ core; assay: Fluorescence enhancement, local variations 5′-X(AATT)Y-3′; format: binding
Description: All the chemicals, reagents, single-stranded oligos (dA20, dT20, dG20, dC20), self-complementary oligos {d(ATAT)5, (D1)mix, Drew-AT, Calf-Thymus DNA (CT-DNA), (DM1, DM2, DM3, DM4, DM5, DM6 and DM7)}, RNA, were purchased from Sigma-Aldrich. ^1H and ^13C NMR spectra were recorded on a Bruker AV-400 MHz spectrometer with chemical shifts reported as parts per million (ppm) (in DMSO-d6, tetramethylsilane as an internal standard) at 20° C. UV-vis absorption and emission spectra were measured in quartz cuvettes of 1 cm path length. High resolution mass spectra (HRMS) were obtained on Agilent Technologies 6538 UHD Accurate-Mass Q-TOF LC/MS spectrometer. All biophysical studies (UV-vis, fluorescence and Cirular dichroism) are carried out at the concentration 0-5 μM of probe, volume=500 μL, temperature=25° C. and time of incubation=2 minutes. HeLa cells and MCF7 cells used in the biological studies are obtained from “Molecular reproduction, development and genetics lab, Indian institute of science, Bangalore, India”
Stock solutions of QCy-DT are prepared in double-distilled (dd) water in the order of 10^−3 M and stored at about −10° C. […]
The UV-vis absorption and emission spectra are recorded on Agilent Technologies Cary series UV-vis-NIR absorbance and Cary eclipse fluorescence spectrophotometers, respectively. […] Absorption is monitored at 260 nm with regular 5° C. intervals. Melting temperatures (Tm) of DNA samples are calculated from the first derivatives of the absorption vs. temperature curves (thermal denaturation or melting curves) obtained by monitoring at 260 nm.
To understand finer details of the interactions of QCy-DT with local variations around 5′-AATT-3′ sequence in the minor groove of DNA duplex, fluorescence studies are performed in the presence of DNA containing core hexanucleotide sequences such as 5′-X(AATT)Y-3′ (where X=A/T/G/C and Y is complementary base of X) (FIG. 5a). […] Remarkably, enormous fluorescence enhancement is observed in the presence of DNA with 5′-AAATTT-3′ core, which is ˜4-folds higher than the DNA with 5′-AATT-3′ core sequence alone. […]

HeLa cells = assay: Fluorescence study in fixed cells; format: cell-based; conditions: 0.5 and 1 μM, Hoechst as control
Description: HeLa cells are grown on the cover slip for about 24 hours in DMEM medium supplemented with 10% fetal bovine serum at about 37° C. in a humidified atmosphere containing 5% CO2 till 80% confluency is achieved. Then cells are fixed with 4% paraformaldehyde in PBS for 10 min. After rinsing twice with PBS, HeLa cells are treated separately with probe QCy-DT at various concentrations (0.5 μM and 1 μM) for 10 min at room temperature. Subsequently, cover slips are incubated with Hoechst 33258 at 10 μg/mL for nuclear staining. Fluorescence images are taken by Carl Zeiss Laser Scanning Microscope (LSM510 META).
In order to check its permeability, cellular uptake studies are carried out in live and fixed conditions of MCF-7 and HeLa cells, respectively. First, MCF-7 cells are incubated with probe QCy-DT (0.5 and 1 μM) without fixing, and live cell imaging is conducted using Carl Zeiss fluorescence microscope as described above. […] Next, HeLa cells are fixed and incubated with QCy-DT (0.5 and 1 μM) along with Hoechst as the control nuclear staining dye. […] Therefore, staining results obtained with live and fixed cells confirmed high cell permeability, efficiency (low staining concentration of 1 μM), and preferential targeting of cell nuclear DNA.

C[n+]1c(/C=C/c2ccc(O)c(/C=C/c3sc4ccccc4[n+]3C)c2)sc2ccccc21 [QCy-DT, quinone cyanine-dithiazole]
fluorescence enhancement [1]: very weak fluorescence enhancement
nuclear staining (HeLa cells): selective staining of the cell nucleus, and remarkable co-localization with Hoechst dye
